Where a chain is given by its changes, count along the chain named. “And” between values parts separate entries of the source, which are not always exact repeats. Identical values can stand only once.
Assays:
[1] = target: T1, TREK-1^CG* (K2P2.1 (TREK-1) S131C) (Mus musculus, UniProt P97438, S146C); test: TEVC in Xenopus oocytes; format: cell-based; details: for Fold-activation (I activator/I control) / Reversibility of activation on washout: 20 μM, Xenopus oocytes; for Fold-activation (I activator/I control): 0 mV; for TREK-1 GC activity class: Fold-activation at 20 uM in oocytes
T1 construct: expressed in transfected cells; host or cells: Xenopus laevis oocytes injected with mRNA
T1 sequence (P97438 1-411 isoform P97438-2 S131C): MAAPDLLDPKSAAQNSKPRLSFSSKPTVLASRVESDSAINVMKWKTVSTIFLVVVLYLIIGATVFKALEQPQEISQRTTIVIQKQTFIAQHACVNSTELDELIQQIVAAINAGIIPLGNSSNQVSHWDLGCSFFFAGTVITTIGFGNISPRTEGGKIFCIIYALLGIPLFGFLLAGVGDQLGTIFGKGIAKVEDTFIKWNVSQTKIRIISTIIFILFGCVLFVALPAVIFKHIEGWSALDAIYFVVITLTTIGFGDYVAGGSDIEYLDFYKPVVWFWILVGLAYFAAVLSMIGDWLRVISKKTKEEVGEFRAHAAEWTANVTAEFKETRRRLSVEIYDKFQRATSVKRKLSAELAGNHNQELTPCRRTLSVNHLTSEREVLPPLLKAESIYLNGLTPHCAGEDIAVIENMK
From the text: (§1) Mouse K2P2.1 (TREK-1) (Genbank accession number: NP_034737.2), mouse K2P10.1 (TREK-2) (NM_001316665.1), mouse K2P4.1 (TRAAK) (NM_008431.3), human K2P4.1 (TRAAK) (NM_033310.2) and mouse K2P18.1(TRESK) (NM_207261.3) were used for this study. Point mutations were introduced by site-directed mutagenesis using custom primers and confirmed by sequencing before use. For studies using Xenopus oocytes, K2P channels were subcloned into a previously reported pGEMHE/pMO vector (46). For expression in HEK293 cells, mouse K2P2.1 (TREK-1) and mutants were expressed from a previously described pIRES2-EGFP vector in HEK293 cells (46,47). K2P2.1 (TREK-1) tandems were constructed by connecting the open reading frames for the individual subunits with a linker encoding the […] (SEQ ID NO: 19) sequence. Tandems used for HEK293 cells included an N-terminal HA tag ([…] (SEQ ID NO: 20)) on the first subunit.
(§2) Xenopus laevis oocytes were harvested according to UCSF IACUC Protocol AN129690 and digested using collagenase (Worthington Biochemical Corporation, #LS004183, 0.8-1.0 mg/mL) in Ca^21-free ND96 (96 mM NaCl, 2 mM KCl, 3.8 mM MgCl2, 5 mM HEPES pH 7.4) immediately post-harvest, as previously reported (31,33). Oocytes were maintained at 18° C. in ND96 (96 mM NaCl, 2 mM KCl, 1.8 mM CaCl2, 2 mM MgCl2, 5 mM HEPES pH 7.4) supplemented with antibiotics (100 units mL^−1 penicillin, 100 μg mL^−1 streptomycin, 50 μg mL^−1 gentimycin) and used for experiments within one week of harvest.
(§3) Defolliculated stage V-VI oocytes were microinjected with 0.5-36 ng mRNA and currents were recorded within 16-48 h hours of injection.
(§4) For recordings, oocytes were impaled with borosilicate recording microelectrodes (0.4-2.0 MΩ resistance) backfilled with 3 M KCl and were subjected to constant perfusion of ND96 at a rate of 3 ml min^−1. Recording solutions containing K2P activators were prepared immediately prior to use from DMSO stocks (20-100 mM), with final DMSO concentrations of 0.1%. Currents were evoked from a −80 mV holding potential followed by a 300 ms ramp from −150 mV to +50 mV. Data were recorded using a GeneClamp 500B amplifier (MDS Analytical Technologies) controlled by pCLAMP8 software (Molecular Devices), and digitized at 1 kHz using Digidata 1332 Å digitizer (MDS Analytical Technologies). For each recording, control solution (ND96) was perfused over a single oocyte until current was stable before switching to solutions containing the test compounds at various concentrations. Representative traces and dose response plots were generated in GraphPad Prism 9.

K2P2.1 (TREK-1) = target: T2, K2P2.1 (TREK-1) (Mus musculus, UniProt P97438); test: Two-electrode voltage clamp (TEVC) in Xenopus oocytes; format: cell-based; details: for Fold-activation (I activator/I control): currents at 0 mV; for TREK-1 activity class: Fold-activation at 20 uM in oocytes; for TREK-1 fold-activation: 20 uM, oocytes expressing TREK1
T2 construct: expressed in transfected cells; host or cells: Xenopus laevis oocytes injected with mRNA (pGEMHE/pMO vector)
T2 sequence (P97438 1-411 isoform P97438-2): T1 sequence (P97438 1-411 isoform P97438-2 S131C) with C131S
From the text: as §1, §2, §3, §4

K2P10.1 (TREK-2)^CG* = target: T3, K2P10.1 (TREK-2)^CG* (Mus musculus, UniProt Q8BUW1, S153C); test: TEVC in Xenopus oocytes; format: cell-based; details: Fold-activation at 20 uM in oocytes
T3 construct: Modified TREK-2 from Mus musculus; expressed in transfected cells; host or cells: Xenopus laevis oocytes injected with mRNA
T3 sequence (Q8BUW1 with tags, fused parts or gaps S153C): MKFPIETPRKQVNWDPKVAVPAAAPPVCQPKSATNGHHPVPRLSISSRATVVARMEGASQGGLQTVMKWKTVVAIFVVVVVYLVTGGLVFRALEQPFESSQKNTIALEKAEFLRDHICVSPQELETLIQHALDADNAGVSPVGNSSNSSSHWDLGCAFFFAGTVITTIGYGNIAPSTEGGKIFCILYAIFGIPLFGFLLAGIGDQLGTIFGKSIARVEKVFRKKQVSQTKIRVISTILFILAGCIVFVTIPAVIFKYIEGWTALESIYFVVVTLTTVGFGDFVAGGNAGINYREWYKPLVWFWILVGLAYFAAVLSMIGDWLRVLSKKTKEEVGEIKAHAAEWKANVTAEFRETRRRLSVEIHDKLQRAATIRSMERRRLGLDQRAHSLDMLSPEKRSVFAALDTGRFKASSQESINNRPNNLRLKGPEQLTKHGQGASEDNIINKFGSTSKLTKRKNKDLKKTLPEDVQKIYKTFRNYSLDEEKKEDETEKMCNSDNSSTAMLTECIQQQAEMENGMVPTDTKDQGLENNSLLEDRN
From the text: as §1, §2, §3, §4

K2P2.1 (TREK-1) S131A = target: T4, K2P2.1 (TREK-1) S131A (Mus musculus, UniProt P97438, S146A); test: TEVC in Xenopus oocytes; format: cell-based; details: 20 μM, 0 mV
T4 construct: expressed in transfected cells; host or cells: Xenopus laevis oocytes injected with mRNA
T4 sequence (P97438 1-411 isoform P97438-2 S131A): T1 sequence (P97438 1-411 isoform P97438-2 S131C) with C131A
From the text: as §1, §2, §3, §4

[2] = Solubility in aqueous solutions (crystallization sample preparation); format: physicochemical
Method: K2P2.1cryst ML335 and ML402 complex crystals grew in the same conditions as K2P2.1cyst, but the protein was incubated for at least 1 h with 2.5 mM of activator before setting the crystal plates. […] Then each compound was diluted 1:100 in SEC buffer to 5 mM concentration, giving a milky solution. This solution was mixed 1:1 to K2P2.1cryst previously concentrated to 12 mg ml^−1. […] The samples were briefly centrifuged in a table-top centrifuge (10,000 g) to remove any insoluble material before setting the crystal plates.

K2P4.1 (TRAAK) = target: T5, K2P4.1 (TRAAK) (Homo sapiens, UniProt Q9NYG8); details: previous studies; cited from earlier work
T5 sequence (Q9NYG8 1-393): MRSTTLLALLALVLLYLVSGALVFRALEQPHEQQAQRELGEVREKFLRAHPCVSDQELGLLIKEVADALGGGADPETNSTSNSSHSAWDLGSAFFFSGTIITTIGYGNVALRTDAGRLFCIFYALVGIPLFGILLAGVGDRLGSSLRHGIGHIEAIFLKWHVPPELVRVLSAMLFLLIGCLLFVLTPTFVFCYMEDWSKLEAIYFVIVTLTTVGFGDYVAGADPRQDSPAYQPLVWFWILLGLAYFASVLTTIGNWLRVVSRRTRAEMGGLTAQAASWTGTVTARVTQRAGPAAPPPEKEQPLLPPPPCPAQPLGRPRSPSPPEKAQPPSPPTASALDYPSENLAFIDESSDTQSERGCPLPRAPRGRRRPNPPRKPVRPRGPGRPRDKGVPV

Question: What does the source list for CC1=CC(=O)N(c2ccc(C(=O)NCc3ccc(Cl)cc3Cl)cc2)C1=O [CAT335a]?
Answer: Fold-activation (I activator/I control) [1]: 7.4±0.7 fold; Reversibility of activation on washout [1]: irreversibly activate

Question: With CC1=C(C)C(=O)N(c2ccc(C(=O)NCc3ccc(Cl)cc3Cl)cc2)C1=O [CAT335b] as the molecule, how does the “Fold-activation (I activator/I control)” value [1] read?
Answer: Its value is 4.9±0.6 fold.

Question: What about the “Reversibility of activation on washout” value [1] of the same molecule?
Answer: The value was “partially reversible with washout”.

Question: What about the “Reversibility of activation after extended incubation” value ([1]; 1 hour incubation, washout with buffer) of the same molecule?
Answer: The value was “remained reversible”.

Question: With O=C(NCc1ccc(Cl)cc1Cl)c1ccc(N2C(=O)CCC2=O)cc1 [CAT335c] as the molecule, how does the “Fold-activation (I activator/I control)” value (K2P2.1 (TREK-1); 20 μM, Xenopus oocytes) read?
Answer: The value was 2.09 ± 0.14 fold.

Question: What about the “Fold-activation (I activator/I control)” value [1] of the same molecule?
Answer: Its value is 5.0 ± 0.4 fold.

Question: And the “Reversibility of activation on washout” value [1]?
Answer: Its value is “reversible”.

Question: With C=CC(=O)Nc1ccc(C(=O)NCc2ccc(Cl)cc2Cl)cc1 [Entry 1] as the molecule, how does the TREK-1 activity class (K2P2.1 (TREK-1)) read?
Answer: Its TREK-1 activity class is “+++ (>5 fold)”.

Question: What about the “TREK-1 GC activity class” value [1] of the same molecule?
Answer: Its value is “+++ (>5 fold)”.

Question: For C#CCNC(=O)CCC(=C)C(=O)Nc1ccc(C(=O)NCc2ccc(Cl)cc2Cl)cc1 [Entry 2], which TREK-1 activity class (K2P2.1 (TREK-1)) is on record?
Answer: Its TREK-1 activity class is “+++ (>5 fold)”.

Question: What about the “TREK-1 GC activity class” value [1] of the same molecule?
Answer: The value was “+++ (>5 fold)”.

Question: Which results are given for C=C(CCC(=O)O)C(=O)Nc1ccc(C(=O)NCc2ccc(Cl)cc2Cl)cc1 [Entry 3]?
Answer: TREK-1 activity class (K2P2.1 (TREK-1)): ++ (2.5-5 fold); TREK-1 GC activity class [1]: ++ (2.5-5 fold)

Question: Which results are given for C=C1CC(=O)N(c2ccc(C(=O)NCc3ccc(Cl)cc3Cl)cc2)C1=O [Entry 17]?
Answer: TREK-1 activity class (K2P2.1 (TREK-1)): + (1.5-2.5 fold); TREK-1 GC activity class [1]: ++ (2.5-5 fold)

Question: For C#CCNC(=O)CCCC1=CC(=O)N(c2ccc(C(=O)NCc3ccc(Cl)cc3Cl)cc2)C1=O [Entry 18], which “TREK-1 GC activity class” value [1] is on record?
Answer: The value was “++ (2.5-5 fold)”.

Question: With CCOC(=O)CCCC1=CC(=O)N(c2ccc(C(=O)NCc3ccc(Cl)cc3Cl)cc2)C1=O [Entry 19] as the molecule, how does the “TREK-1 GC activity class” value [1] read?
Answer: Its value is “++ (2.5-5 fold)”.

Question: For CC1=C(C)C(=O)N(c2ccc(C(=O)NCc3ccc(Cl)cc3Cl)cc2)C1=O [Entry 20], which “TREK-2 GC activity class” value (K2P10.1 (TREK-2)^CG*) is on record?
Answer: The value was “+ (1.5-2.5 fold)”.

Question: What about the “TREK-1 GC activity class” value [1] of the same molecule?
Answer: The value was “++ (2.5-5 fold)”.

Question: With CS(=O)(=O)Nc1ccc2c(c1)OCCN(Cc1ccc(Cl)cc1Cl)C2=O [Entry 43] as the molecule, how does the TREK-1 fold-activation (K2P2.1 (TREK-1)) read?
Answer: Its TREK-1 fold-activation is 1.6 fold.

Question: And the TREK-1 activity class (K2P2.1 (TREK-1))?
Answer: The TREK-1 activity class was “+ (1.5-2.5 fold)”.

Question: Which TREK-1 fold-activation (K2P2.1 (TREK-1)) does the source give for CS(=O)(=O)Nc1ccc2c(c1)CCCN(Cc1ccc(Cl)cc1Cl)C2=O [Entry 44] here?
Answer: Its TREK-1 fold-activation is 1.0 fold.

Question: For CS(=O)(=O)Nc1ccc2c(c1)CCN(Cc1ccc(Cl)cc1Cl)C2=O [Entry 45], which TREK-1 fold-activation (K2P2.1 (TREK-1)) is on record?
Answer: Its TREK-1 fold-activation is 1.1 fold.

Question: Which results are given for O=C(COCCOCCNC(=S)Nc1ccc2c(c1)C(=O)OC21c2ccc(O)cc2Oc2cc(O)ccc21)Nc1ccc(C(=O)NCc2ccc(Cl)cc2Cl)cc1 [Entry 46]?
Answer: TREK-1 fold-activation (K2P2.1 (TREK-1)): 4 fold; TREK-1 activity class (K2P2.1 (TREK-1)): +++ (>5 fold)

Question: With O=C(NCc1ccc(Cl)cc1Cl)c1ccc(N2CCS2(=O)=O)cc1 [Entry 47] as the molecule, how does the “TREK-1 GC activity class” value [1] read?
Answer: Its value is “+ (1.5-2.5 fold)”.

Question: What does the source list for O=C(NCc1ccc(Cl)cc1Cl)c1ccc(C(=O)N2CCS2(=O)=O)cc1 [Entry 48]?
Answer: TREK-1 activity class (K2P2.1 (TREK-1)): + (1.5-2.5 fold); TREK-1 GC activity class [1]: + (1.5-2.5 fold)

Question: Which results are given for C=CC(=O)Nc1ccc(C(=O)NCc2ccc(Cl)cc2Cl)cc1 [ML336]?
Answer: Reversibility of activation on washout (K2P2.1 (TREK-1); 20 μM, Xenopus oocytes): sustained following washout; Fold-activation (I activator/I control) (K2P2.1 (TREK-1); 20 μM, Xenopus oocytes): 10+1.0 fold and 10.0 (FIG. 1) fold; Fold-activation (I activator/I control) (K2P2.1 (TREK-1) S131A): 16.1 (FIG. 1) fold

Question: What does the source list for Cc1cc(Cl)ccc1OCCNC(=O)c1cccs1 [ML402]?
Answer: Solubility in aqueous solutions [2]: insoluble in aqueous solutions; Sensitivity of channel to activator (K2P4.1 (TRAAK)): insensitive

From patent publication US20260098008A1, “COVALENT, CHEMOGENETIC ACTIVATORS FOR K2P POTASSIUM CHANNELS AND USES THEREOF” (THE REGENTS OF THE UNIVERSITY OF CALIFORNIA, priority 2022, published 2026)
